Reference: patent publication US12083105B2, “Compositions and methods for treating adult-onset neuronal ceroid lipofuscinosis (Kufs disease)” (CORNELL UNIVERSITY, priority 2020, dated 2024)

Tested on: synaptic SNARE-complex
Experiment: SNARE-complex assembly in primary neurons (Syb-2 immunoprecipitation, co-IP of Synt-1 and SNAP-25)
Format: cell-based, mice
Conditions: CSPα^L115R and CSPα^L116Δ expressing neurons; 200 μM, 72 h; compared to vehicle only; FIG. 3E
Excerpt: For the experiments shown in FIGS. 3A-3E, primary cortical neurons from neonatal CSPα^−/− mice were infected with lentiviruses expressing Myc-tagged CSPα^WT, CSPα^L115R, CSPα^L116Δ, SSPα, or empty lentivirus (Control) on 7 days in vitro (DIV) and examined on 17 DIV. […] The lentivirus infected cells were stained using antibodies against Myc (green), somatodendritic marker MAP2 (red), and counterstained with nuclear stain DAPI (blue). […] Immunoprecipitation (IP) for SNAP-25 was followed by quantitative immunoblotting of the co-immunoprecipitated (co-IP'd) CSPα (top blot), and normalized to the IP'd SNAP-25 (bottom blot). IP: Control=sham IP without IgG. Palm=palmitoylated. […] N.D.=not detected. […] Immunoprecipitation using anti-synaptobrevin-2 (Syb-2) antibody was followed by quantitative immunoblotting of co-IP'd SNARE-complex partners syntaxin-1 (Synt-1) and SNAP-25. […] Cell extracts were separated by SDS-PAGE, and subjected to quantitative immunoblotting using anti-SNAP-25 antibody and β-actin for normalization. To measure palmitoylation, oligomers were disrupted by lysing neurons in 0.1 N HCl plus 0.1% Triton X-100 for 20 min at 4° C., followed by SDS-PAGE and quantitative immunoblotting against CSPα. […] FIG. 3D (right panel) show quantitation of oligomers, palmitoylated CSPα, respectively, in corresponding lane and expressed as a percentage of total. […]

## CC(=O)N(O)CCCCCNC(=O)CCC(=O)N(O)CCCCCNC(=O)CCC(=O)N(O)CCCCCN [Dfx, N′-[5-(Acetyl-hydroxy-amino)pentyl]-N-[5-[3-(5-aminopentyl-hydroxy-carbamoyl)propanoylamino]pentyl]-N-hydroxy-butane diamide]
  level of co-immunoprecipitated Synt-1 and SNAP-25 (SNARE-complex assembly): increased level

## Cc1c(O)c(=O)ccn1C [L1, 3-hydroxy-1,2-dimethyl-4(1H)-pyridone]
  level of co-immunoprecipitated Synt-1 and SNAP-25 (SNARE-complex assembly): increased level
